Among the test systems are HCT-15; HCT-116; RXF 393; SF-268; LOX IMVI; NCI-H522; SK-MEL-5; OVCAR-8; EKVX; NCI-H23; SF-295; OVCAR-3; HT-29; COLO 205; SN12C; UACC-62; NCI-H226; OVCAR-4; A498; SK-MEL-2.
Common to all, as to test: NCI anticancer screen, dose series, 48 h

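1) Cells in 96-well plates. 2) Compound, 48 h, 5 concentrations. 3) Linear interpolation between surrounding doses. 4) Unreached endpoint = highest concentration. GI50 = concentration required for 50% inhibition of growth.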 Active and inactive are the calls of the source. Rule as the data show it: active = GI50 up to about 1.1 µM and inactive = higher. A value given as a limit tells only on which side of the number the result lay.

For `O=C1c2ccccc2N(O)C1(c1ccccc1)C1CCCC=C1N1CCOCC1` (stereo unspecified), the GI50 in the assay on HCT-15 was 91.2 µM; in the assay on HCT-116, 28.5 µM (inactive); in the assay on RXF 393, 22.4 µM (inactive); in the assay on SF-268, 40.8 µM (inactive); in the assay with LOX IMVI it was 71.1 µM (inactive); in the assay on NCI-H522, 22.5 µM (inactive). In addition, the GI50 in the assay on SK-MEL-5 is > 69.5 µM (inactive); with OVCAR-8, > 100 µM (inactive); with EKVX, 34.7 µM (inactive); in the assay with NCI-H23, > 100 µM (inactive); in the assay with SF-295, > 100 µM (inactive); in the assay with OVCAR-3, > 100 µM (inactive). Also, the GI50 with HT-29 is > 100 µM (inactive); in the assay on COLO 205, > 100 µM (inactive); in the assay with SN12C, > 100 µM (inactive); with UACC-62, 35.8 µM (inactive); in the assay with NCI-H226 it was 69.5 µM (inactive).

For the compound `O=[N+]([O-])c1ccc(N2N=C(c3ccc(NCc4nc5ccccc5[nH]4)cc3)CC2c2ccco2)cc1` (stereo unspecified), the GI50 with HCT-15 is 21.3 µM; in the assay with HCT-116 it was 16.2 µM (inactive); in the assay on RXF 393, 42.2 µM (inactive); in the assay on SF-268, 34.8 µM (inactive); with LOX IMVI, 18.5 µM (inactive); in the assay on NCI-H522, 15.5 µM (inactive). Further, the GI50 was 20.2 µM (inactive) in the assay with OVCAR-4; 14.2 µM (inactive) in the assay on SK-MEL-5; 18.1 µM (inactive) in the assay with OVCAR-8; 19.9 µM (inactive) in the assay with NCI-H23; 23.6 µM (inactive) in the assay on SF-295; 21.8 µM (inactive) in the assay with OVCAR-3. The GI50 was 27.5 µM (inactive) with HT-29; 30.8 µM (inactive) in the assay on COLO 205; 20.3 µM (inactive) in the assay on SN12C; 28.8 µM (inactive) in the assay on A498; > 10 µM (inactive) in the assay on SK-MEL-2; 19.5 µM (inactive) in the assay with UACC-62.

With `CC(=O)NNc1nc(C)c(C(=O)NNC(=O)C(=O)Nc2ccc([N+](=O)[O-])cc2C#N)s1`, the GI50 in the assay on HCT-15 is above 100 µM; with HCT-116 it was > 100 µM (inactive); in the assay on SF-268, 52.2 µM (inactive); with LOX IMVI, 52.7 µM (inactive); in the assay with NCI-H522, 76 µM (inactive); in the assay with OVCAR-4, 45.3 µM (inactive). Also, the GI50 was > 100 µM (inactive) in the assay on SK-MEL-5; > 100 µM (inactive) in the assay with OVCAR-8; 96.4 µM (inactive) in the assay on EKVX; 96.4 µM (inactive) in the assay with NCI-H23; > 10 µM (inactive) in the assay with SF-295; 63.5 µM (inactive) in the assay on OVCAR-3. Further, the GI50 is > 100 µM (inactive) in the assay on HT-29; > 100 µM (inactive) in the assay on COLO 205; > 100 µM (inactive) in the assay on SN12C; 58.1 µM (inactive) with A498; > 100 µM (inactive) with SK-MEL-2; > 100 µM (inactive) in the assay with UACC-62. The GI50 in the assay with NCI-H226 was > 100 µM (inactive).

Turning to `CC(=O)Nc1ccc(C(=O)NN2C(=O)C(Cl)/C2=C/c2ccco2)cc1` (stereo unspecified), the GI50 in the assay on HCT-116, with SF-268, in the assay on NCI-H522, in the assay with SK-MEL-5, with OVCAR-8 and in the assay with NCI-H23 was > 100 µM (inactive) each time. Moreover, the GI50 with SF-295, with OVCAR-3, in the assay on HT-29, in the assay with COLO 205, in the assay with SK-MEL-2 and in the assay on UACC-62 was > 100 µM (inactive) throughout. The GI50 in the assay on NCI-H226 was > 100 µM (inactive).

For the compound `COC1(OC)CCC2C1C1CCC(OC)(OC)C21` (stereo unspecified), the GI50 in the assay with HCT-15 is above 50 µM; with HCT-116, > 50 µM (inactive); in the assay on RXF 393 it was > 50 µM (inactive); with SF-268, > 50 µM (inactive); in the assay on NCI-H522, > 50 µM (inactive); in the assay with OVCAR-4, > 50 µM (inactive). Moreover, the GI50 in the assay on SK-MEL-5, in the assay on OVCAR-8, in the assay with EKVX, in the assay on NCI-H23, with SF-295 and with OVCAR-3 was > 50 µM (inactive) throughout. In addition, the GI50 with HT-29, in the assay on COLO 205, in the assay on SN12C, with A498, in the assay with SK-MEL-2 and in the assay with UACC-62 was > 50 µM (inactive) in each case. Further, the GI50 in the assay with NCI-H226 is > 50 µM (inactive).

On to `CC1CC/C(=C\c2ccc(N(C)C)cc2)C2=C1C(c1ccc(N(C)C)cc1)NC(=S)N2` (stereo unspecified), for which the GI50 in the assay with HCT-15 was above 100 µM; in the assay with HCT-116, > 100 µM (inactive); in the assay on RXF 393, > 100 µM (inactive); in the assay on SF-268, > 100 µM (inactive); in the assay with LOX IMVI, > 100 µM (inactive); in the assay on SK-MEL-5 it was > 100 µM (inactive). The GI50 with OVCAR-8, in the assay on EKVX, in the assay on NCI-H23, in the assay on SF-295, with OVCAR-3 and with HT-29 was > 100 µM (inactive) each time. For the same compound, the GI50 in the assay with COLO 205, with SN12C, in the assay on A498, in the assay with SK-MEL-2, in the assay on UACC-62 and in the assay on NCI-H226 was > 100 µM (inactive) each time.

For the compound `CN1C(=O)CCC1c1ccc2c(c1)oc(=O)n2C` (stereo unspecified), the GI50 in the assay on HCT-15 is above 100 µM; in the assay with HCT-116 it was > 100 µM (inactive); in the assay with RXF 393, > 100 µM (inactive); in the assay on SF-268, > 100 µM (inactive); in the assay on LOX IMVI it was > 100 µM (inactive); with NCI-H522, > 100 µM (inactive). In addition, the GI50 with OVCAR-4, in the assay with OVCAR-8, in the assay with EKVX, in the assay with NCI-H23, in the assay with SF-295 and in the assay on HT-29 was > 100 µM (inactive) each time. For the same compound, the GI50 with COLO 205, with SN12C, in the assay on SK-MEL-2, in the assay with UACC-62 and in the assay with NCI-H226 was > 100 µM (inactive) throughout.

Regarding `CCN(CC)c1cccc2c1/C(=N/O)CCCC2`, the GI50 with HCT-15 is above 100 µM; in the assay with HCT-116 it was 92.3 µM (inactive); with RXF 393, 90.2 µM (inactive); in the assay with SF-268, > 100 µM (inactive); with LOX IMVI, > 100 µM (inactive); in the assay on NCI-H522 it was > 100 µM (inactive). The GI50 in the assay on OVCAR-4 is > 100 µM (inactive); with SK-MEL-5, 70.8 µM (inactive); in the assay on OVCAR-8 it was > 100 µM (inactive); in the assay with EKVX, > 100 µM (inactive); in the assay on NCI-H23 it was > 100 µM (inactive); in the assay on SF-295 it was 83.8 µM (inactive). In addition, the GI50 was 97.1 µM (inactive) in the assay on HT-29; > 100 µM (inactive) in the assay with COLO 205; > 100 µM (inactive) with SN12C; > 100 µM (inactive) in the assay with SK-MEL-2; > 100 µM (inactive) with UACC-62; > 100 µM (inactive) in the assay on NCI-H226.

With `CC(=O)c1c2c(cc3c1CC1(Cc4cc5c(cc4C1)C(=O)CCC5)C3)CCCC2` (stereo unspecified), the GI50 with HCT-15 is 3.94 µM; in the assay with HCT-116 it was 14.4 µM (inactive); in the assay on SF-268 it was 8.07 µM (inactive); with LOX IMVI, 7.18 µM (inactive); with NCI-H522, 4.31 µM (inactive); in the assay with OVCAR-4, 5.83 µM (inactive). The GI50 is 2.21 µM (inactive) with SK-MEL-5; 13.9 µM (inactive) with OVCAR-8; > 23.8 µM (inactive) in the assay with EKVX; 6.12 µM (inactive) with NCI-H23; 8.24 µM (inactive) in the assay on SF-295; 7.59 µM (inactive) in the assay with OVCAR-3. In addition, the GI50 with HT-29 is 3.25 µM (inactive); with COLO 205, 4.86 µM (inactive); in the assay with SN12C it was 13.4 µM (inactive); with A498, 0.822 µM (active); with SK-MEL-2, 2.88 µM (inactive); with NCI-H226, 3.5 µM (inactive).

For `O=C1C(Cl)N(c2ccccc2[N+](=O)[O-])C1c1c[nH]c2ccccc12` (stereo unspecified), the GI50 with HCT-116, in the assay on RXF 393, in the assay with SF-268, in the assay on NCI-H522, with OVCAR-4 and with SK-MEL-5 was > 100 µM (inactive) each time. Moreover, the GI50 was > 100 µM (inactive) in the assay on OVCAR-8; 83.6 µM (inactive) in the assay on EKVX; > 100 µM (inactive) in the assay with NCI-H23; > 100 µM (inactive) with SF-295; > 100 µM (inactive) in the assay on OVCAR-3; > 100 µM (inactive) in the assay on HT-29. For the same compound, the GI50 in the assay with COLO 205, with SN12C, in the assay on SK-MEL-2 and with UACC-62 was > 100 µM (inactive) each time.

Regarding `O=C(NCCCl)SCCO`, the GI50 is above 100 µM in the assay with HCT-15; > 100 µM (inactive) in the assay on HCT-116; > 100 µM (inactive) in the assay with RXF 393; > 100 µM (inactive) with SF-268; > 100 µM (inactive) with NCI-H522; > 100 µM (inactive) in the assay on OVCAR-4. Besides, the GI50 with OVCAR-8, with EKVX, in the assay with NCI-H23, in the assay with SF-295, with OVCAR-3 and with HT-29 was > 100 µM (inactive) throughout. Besides, the GI50 in the assay on COLO 205, in the assay on SN12C, in the assay on A498, in the assay on SK-MEL-2, in the assay with UACC-62 and with NCI-H226 was > 100 µM (inactive) throughout.

For the origin of these results see ChEMBL document CHEMBL1201862, “PubChem BioAssay data set” (2004).
